# Measurements published in patent US9625458B2, “Biosensor” (priority 2002, dated 2017).
# Tests used:
# [1] = target: T1, E. coli arabinose binding protein variant C64A/F23C, fluorophore conjugate (Escherichia coli, UniProt P02924, C87A/F46C); assay: Fluorimetric titration of fluorophore conjugates; settings: allosteric site
# T1 construct: initiator methionine (N); Gly-Ser-Gly-(His)n or Gly-Ser-(His)n (n = 5, 6 or 10) (C); made in house; host or cells: E. coli BL21-DE3
# Excerpt: (§1) Molecular Cloning. […] Amplified products were cloned into one of the protein expression vectors pAED4 (Doering, “Functional and structural studies of a small f-actin binding domain” in Ph.D. thesis, Massachusetts Institute of Technology, 1992); pKK223-3 (Brosius & Holy, Proc. Natl. Acad. Sci. USA 81:6929-6933, 1984); or pET vectors (Studier et al., Meth. Enzymol. 185:60-89, 1990) (Novagen). N-terminal oligonucleotide primers were designed to clone only the processed periplasmic form, deleting the signal sequence. The C-terminal primer was designed to append the sequence Gly-Ser-Gly-(His)n or Gly-Ser-(His)n, where n=5, 6, or 10. Two tandem stop codons (TAATGA) follow the last His codon. […] Single amino acid substitutions were generated by overlapping PCR mutagenesis (Ho et al., Gene 77:51-59, 1989). All clones and mutations were confirmed by nucleotide sequencing. In the case of arabinose BP, the single cysteine in the wild type sequence was replaced by alanine to eliminate the possibility of reporter group conjugation to this thiol (Miller et al., J. Biol. Chem. 254:7521-7528, 1979). Additionally the sequence of Fe(III) BP was mutated by substitution of Glu57 with Asp to raise the Kd to a concentration range conveniently measured using Fe(III) citrate.
# (§2) Fluorophore conjugation to cysteine-substituted bPBPs. Thiol-reactive fluorophores obtained from Molecular Probes (Eugene, Oreg.) were 5-iodoacetamidofluorescein (fluorescein); N-(1-pyrene) iodoacetamide (pyrene); N,N′-dimethyl-N-(iodoacetyl)-N′-(7-nitrobenz-2-oxa-1,3-diazol-4-yl)ethylenediamide (NBD); N-((2-(iodoacetoxy)ethyl)-N-methyl)amino-7-nitrobenz-2-oxa-1,3-diazole (NBDE); and 6-acryloyl-2-dimethylaminonaphthalene (acrylodan). The styryl and naphthyl dyes JPW4039, JPW4042, and JPW4045 (FIG. 3) were synthesized at the University of Connecticut. All fluorophore conjugation steps were typically carried out at room temperature. To protein at a concentration of 100 μM was added tris-(2-carboxyethyl)phosphine HCl to a five-fold molar excess to reduce intermolecular disulfide bonds. A thiol-reactive fluorophore (20 to 25 mM in acetonitrile or dimethyl sulfoxide) was added in small aliquots to a five-fold molar excess over protein. Conjugation proceeded in the dark at room temperature for 4 hours, or overnight at 4° C. Separation of protein from unreacted fluorophore was achieved by exhaustive dialysis or by size-exclusion chromatography. The efficiency of reporter group attachment was assessed by determination of unreacted thiol with Ellman's reagent (Ellman, Arch. Biochem. Biophys. 74:443-450, 1958) or by measuring the ratio of fluorophore to protein from absorbance spectra of the purified conjugate.
# (§3) Fluorimetry. All measurements were conducted with an SLM Aminco-Bowman series 2 fluorimeter, with sample stirring at 25° C. Fluorescence emission spectra were acquired with excitation and emission slit widths of 4 and 8 nm, respectively. Photomultiplier tube potential was maintained between 400 and 800 volts. Protein concentrations were in the range of 50 to 1000 nM. Fluorophore-specific excitation was at the following approximate wavelengths: tryptophan, 290 nm; acrylodan, 390 nm; fluorescein, 485 nm; pyrene, 340 nm; NBD and NBDE, 490 nm; JPW4039, 485 nm; JPW4042, 470 nm; JPW4045, 470 nm.
# (§4) Corrections were made for dilution of the protein and for background signal from buffer. Binding curves were fit to binding isotherms using equation 3 or 4, as appropriate.
# (§5) Analyte affinity measurements. […] The emission wavelength monitored was that of maximum difference in intensity between the ligand-free and bound states. For each conjugate, fluorescence intensiometric observations were fit to a hyperbolic binding isotherm for a two-state model (Marvin et al., Proc. Natl. Acad. Sci. USA 94:4366-4371, 1997): […]
# [2] = target: T2, E. coli arabinose binding protein variant C64A/L298C, fluorophore conjugate (Escherichia coli, UniProt P02924, C87A/L321C); assay: Fluorimetric titration of fluorophore conjugates; settings: allosteric site
# T2 construct: initiator methionine (N); Gly-Ser-Gly-(His)n or Gly-Ser-(His)n (n = 5, 6 or 10) (C); made in house; host or cells: E. coli BL21-DE3
# Excerpt: as §1, §2, §3, §4, §5
# [3] = target: T3, E. coli arabinose binding protein variant C64A/D257C, fluorophore conjugate (Escherichia coli, UniProt P02924, C87A/D280C); assay: Fluorimetric titration of fluorophore conjugates; settings: allosteric site
# T3 construct: initiator methionine (N); Gly-Ser-Gly-(His)n or Gly-Ser-(His)n (n = 5, 6 or 10) (C); made in house; host or cells: E. coli BL21-DE3
# Excerpt: as §1, §2, §3, §4, §5
# [4] = target: T4, E. coli arabinose binding protein variant C64A/L253C, fluorophore conjugate (Escherichia coli, UniProt P02924, C87A/L276C); assay: Fluorimetric titration of fluorophore conjugates
# T4 construct: initiator methionine (N); Gly-Ser-Gly-(His)n or Gly-Ser-(His)n (n = 5, 6 or 10) (C); made in house; host or cells: E. coli BL21-DE3
# Excerpt: as §1, §2, §3, §4, §5
# [5] = target: T5, E. coli arabinose binding protein variant C64A/K301C, fluorophore conjugate (Escherichia coli, UniProt P02924, C87A/K324C); assay: Fluorimetric titration of fluorophore conjugates
# T5 construct: initiator methionine (N); Gly-Ser-Gly-(His)n or Gly-Ser-(His)n (n = 5, 6 or 10) (C); made in house; host or cells: E. coli BL21-DE3
# Excerpt: as §1, §2, §3, §4, §5
# [6] = target: T6, E. coli arabinose binding protein variant C64A/L298C (Escherichia coli, UniProt P02924, C87A/L321C); assay: Arabinose affinity by tryptophan fluorescence
# T6 construct: initiator methionine (N); Gly-Ser-Gly-(His)n or Gly-Ser-(His)n (n = 5, 6 or 10) (C); made in house; host or cells: E. coli BL21-DE3
# Excerpt: (§6) Molecular Cloning. […] All clones and mutations were confirmed by nucleotide sequencing.
# (§7) Cysteine point mutations were introduced by the PCR overlap method (Ho et al., Gene 77:51-59, 1989). Mutant proteins typically expressed as well as the wild type protein. […] In the case of Fe(III) BP, all mutations were constructed in the E57D background. […] This permitted straightforward determination of Fe(III) affinity by direct titration with Fe(III) citrate at nanomolar concentrations of Fe(III) BP.
# (§8) The effect on dissociation constants is determined not only by the attachment site, but also by the nature of the attached fluorophore, as illustrated for arabinose BP. Dissociation constants for arabinose of the five cysteine-substitution mutants (all with the C64A mutation), measured by tryptophan fluorescence, are 5.0 μM (F23C), 3.2 μM (L253C), 3.4 μM (D257C), 7.6 μM (L298C), and 1.6 μM (K301C).
# [7] = target: T7, E. coli arabinose binding protein variant C64A/F23C (Escherichia coli, UniProt P02924, C87A/F46C); assay: Arabinose affinity by tryptophan fluorescence
# T7 construct: initiator methionine (N); Gly-Ser-Gly-(His)n or Gly-Ser-(His)n (n = 5, 6 or 10) (C); made in house; host or cells: E. coli BL21-DE3
# Excerpt: as §6, §7, §8
# [8] = target: T8, E. coli arabinose binding protein variant C64A/L253C (Escherichia coli, UniProt P02924, C87A/L276C); assay: Arabinose affinity by tryptophan fluorescence
# T8 construct: initiator methionine (N); Gly-Ser-Gly-(His)n or Gly-Ser-(His)n (n = 5, 6 or 10) (C); made in house; host or cells: E. coli BL21-DE3
# Excerpt: as §6, §7, §8
# [9] = target: T9, E. coli arabinose binding protein variant C64A/D257C (Escherichia coli, UniProt P02924, C87A/D280C); assay: Arabinose affinity by tryptophan fluorescence
# T9 construct: initiator methionine (N); Gly-Ser-Gly-(His)n or Gly-Ser-(His)n (n = 5, 6 or 10) (C); made in house; host or cells: E. coli BL21-DE3
# Excerpt: as §6, §7, §8
# [10] = target: T10, E. coli arabinose binding protein variant C64A/K301C (Escherichia coli, UniProt P02924, C87A/K324C); assay: Arabinose affinity by tryptophan fluorescence
# T10 construct: initiator methionine (N); Gly-Ser-Gly-(His)n or Gly-Ser-(His)n (n = 5, 6 or 10) (C); made in house; host or cells: E. coli BL21-DE3
# Excerpt: as §6, §7, §8
# [11] = target: T11, E. coli arabinose binding protein C64A mutant (Escherichia coli, UniProt P02924, C87A); assay: Arabinose affinity of unconjugated arabinose BP C64A
# T11 construct: initiator methionine (N); Gly-Ser-Gly-(His)n or Gly-Ser-(His)n (n = 5, 6 or 10) (C); made in house; host or cells: E. coli BL21-DE3
# Excerpt: as §6, §7, §8
# [12] = target: T12, E. coli glutamate/aspartate binding protein (YBEJ, SEQ ID NO:3) variant T129C, fluorophore conjugate (Escherichia coli, UniProt P37902, T129C); assay: Fluorimetric titration of fluorophore conjugates
# T12 construct: The underlined methionine is the initiation codon for expression of YBEJ used in the study; initiation methionine (N); Gly-Ser-Gly-(His)n or Gly-Ser-(His)n (C); made in house; host or cells: E. coli BL21-DE3
# Excerpt: as §1, §2, §3, §4, §5
# [13] = target: T13, E. coli glutamate/aspartate binding protein (YBEJ, SEQ ID NO:3) variant Q123C, fluorophore conjugate (Escherichia coli, UniProt P37902, Q123C); assay: Fluorimetric titration of fluorophore conjugates
# T13 construct: The underlined methionine is the initiation codon for expression of YBEJ used in the study; initiation methionine (N); Gly-Ser-Gly-(His)n or Gly-Ser-(His)n (C); made in house; host or cells: E. coli BL21-DE3
# Excerpt: as §1, §2, §3, §4, §5
# [14] = target: E. coli histidine binding protein (HBP, SEQ ID NO:2), fluorophore-conjugated cysteine mutants (Escherichia coli, UniProt P0AEU0); settings: read-out: range of Kd; range over conjugates, n=4
# Excerpt: Molecular Cloning. […] Amplified products were cloned into one of the protein expression vectors pAED4 (Doering, “Functional and structural studies of a small f-actin binding domain” in Ph.D. thesis, Massachusetts Institute of Technology, 1992); pKK223-3 (Brosius & Holy, Proc. Natl. Acad. Sci. USA 81:6929-6933, 1984); or pET vectors (Studier et al., Meth. Enzymol. 185:60-89, 1990) (Novagen). N-terminal oligonucleotide primers were designed to clone only the processed periplasmic form, deleting the signal sequence. The C-terminal primer was designed to append the sequence Gly-Ser-Gly-(His)n or Gly-Ser-(His)n, where n=5, 6, or 10. Two tandem stop codons (TAATGA) follow the last His codon. […] Additionally the sequence of Fe(III) BP was mutated by substitution of Glu57 with Asp to raise the Kd to a concentration range conveniently measured using Fe(III) citrate.
# Fluorophore conjugation to cysteine-substituted bPBPs. […] The efficiency of reporter group attachment was assessed by determination of unreacted thiol with Ellman's reagent (Ellman, Arch. Biochem. Biophys. 74:443-450, 1958) or by measuring the ratio of fluorophore to protein from absorbance spectra of the purified conjugate.
# Fluorimetry. […] Fluorescence emission spectra were acquired with excitation and emission slit widths of 4 and 8 nm, respectively. […]
# [15] = target: E. coli histidine binding protein (SEQ ID NO:2) variant E167C, fluorophore conjugate (Escherichia coli, UniProt P0AEU0, E189C); assay: biochemical
# Excerpt: as §1, §2
# (§9) Fluorimetry. All measurements were conducted with an SLM Aminco-Bowman series 2 fluorimeter, with sample stirring at 25° C. Fluorescence emission spectra were acquired with excitation and emission slit widths of 4 and 8 nm, respectively. Photomultiplier tube potential was maintained between 400 and 800 volts. Protein concentrations were in the range of 50 to 1000 nM. […]
# as §5
# [16] = target: E. coli histidine binding protein (SEQ ID NO:2) variant V163C, fluorophore conjugate (Escherichia coli, UniProt P0AEU0, V185C); assay: biochemical
# Excerpt: as §1, §2, §9, §5
# [17] = Acrylodan conjugate, allosteric site
# [18] = JPW4039 conjugate, allosteric site
structure (smiles),measurement,setting,value
OC1OC[C@H](O)[C@H](O)[C@H]1O (some centres unmarked) [arabinose],Kd,[1]; Acrylodan conjugate,3.9 µM
same,Kd,[1]; Fluorescein conjugate,3.2 µM
same,Kd,[1]; JPW4039 conjugate,38 µM
same,Kd,[1]; NBD conjugate,5 µM
same,Kd,[2]; Acrylodan conjugate,44 µM
same,Kd,[2]; JPW4039 conjugate,70 µM
same,Kd,[2]; NBD conjugate,56 µM
same,Kd,[3]; Acrylodan conjugate,56 µM
same,Kd,[3]; Fluorescein conjugate,4 µM
same,Kd,[3]; JPW4039 conjugate,90 µM
same,Kd,[3]; NBD conjugate,32 µM
same,Kd,[4]; [17],0.69 µM
same,Kd,"[4]; Fluoresecin conjugate, allosteric site",48 µM
same,Kd,[4]; [18],165 µM
same,Kd,[4]; L253C-NBD conjugate,775 µM
same,Kd,[4]; L253C-acrylodan conjugate,0.7 µM
same,Kd,[4]; L253C-fluorescein conjugate,~48 µM
same,Kd,"[4]; NBD conjugate, allosteric site",775 µM
same,Kd,[5]; [17],0.46 µM
same,Kd,"[5]; Fluorescein conjugate, allosteric site",24 µM
same,Kd,[5]; [18],77 µM
same,Kd,[5]; K301C-NBD conjugate,~31 µM
same,Kd,"[5]; NBD conjugate, allosteric site",31 µM
same,Kd,[6],7.6 µM
same,Kd,[7],5 µM
same,Kd,[8],3.2 µM
same,Kd,[9],3.4 µM
same,Kd,[10],1.6 µM
same,Kd,[11],~2.2 µM
NC(=O)CC[C@H](N)C(=O)O [glutamine],Kd,[12]; T129C-JPW4039,23 µM
same,Kd,[12]; T129C-NBD,12.1 µM
same,Kd,[13],49 µM
N[C@@H](Cc1c[nH]cn1)C(=O)O [histidine],Kd,[14],0.06 to 2.37 µM
same,Kd,[15],0.06 µM
same,Kd,"[16]; Acrylodan conjugate, peristeric site",0.4 µM
same,Kd,"[16]; JPW4042 conjugate, peristeric site",0.25 µM
same,Kd,"[16]; NBD conjugate, peristeric site",2.37 µM
same,Kd,[16]; V163C-JPW4042,0.25 µM
